Entries after “also recorded” stand apart in the source; their conditions may differ.
Assays:
mice = test: Serum cytokines (IL-12 p40, IL-6, TNF-α) after subcutaneous injection in mice; format: in vivo; details: 20 ug subcutaneous, blood 2 hours later
Description: Blood was collected 2 hours later. For the LPS positive control group, mice were injected intraperitoneally with a 200 ul volume, and blood was collected 1.5 hours later (i.e., at the peak of LPS induced TNF-α activity). The blood was clotted and the serum was prepared and stored at −80° C. until assayed. Serum cytokines were assayed using Biosource cytoscreen kits for TNF-α and Pharmingen antibody pairs for mIL-6 and mIL-12. All samples were assayed in duplicate.

human PBMCs = test: Human PBMC cytokine response assay (IFN-γ and IFN-α in cell-free medium by ELISA), with or without cPLGA; format: cell-based;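 for IFN-α (pg/ml) mean: 20 µg/mL compound for 24 hours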;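 for IFN-γ (pg/ml) mean: 20 µg/mL compound for 24 hours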
PBMCs = test: Human PBMC proliferation assay (3H-thymidine incorporation); format: cell-based; details: Experiment A; for mean cpm: 2 μg/ml
CD19+ B cells = test: Human B cell proliferation assay (3H-thymidine incorporation); details: 2 μg/ml
[1] = Table 25, mean of donors 28250-28253
[2] = mean of Donors 1-2, 20 μg/ml, 24 h
[3] = mean of Donors 3-4, 20 μg/ml, 24 h
[4] = B cells, Donor 146, Experiment A
[5] = B cells, Donor 147, Experiment A

5′-AACGTT-3′ [Compound P-11]
induction of serum IL-12 p40, IL-6 and TNF-α, in words (mice): inactive

5′-TCGTCGA-3′ [Compound P-1, reference compound]
IFN-α (pg/ml) Donor 1 (human PBMCs; Donor 1, 20 μg/ml, 24 h): 0 pg/mL
IFN-γ (pg/ml) Donor 1 (human PBMCs; Donor 1, 20 μg/ml, 24 h): 8 pg/mL
IFN-α (pg/ml) Donor 2 (human PBMCs; Donor 2, 20 μg/ml, 24 h): 0 pg/mL
IFN-γ (pg/ml) Donor 2 (human PBMCs; Donor 2, 20 μg/ml, 24 h): 0 pg/mL
IFN-α (pg/ml) Donor 3 (human PBMCs; Donor 3, 20 μg/ml, 24 h): 0 pg/mL
IFN-γ (pg/ml) Donor 3 (human PBMCs; Donor 3, 20 μg/ml, 24 h): 1 pg/mL
IFN-α (pg/ml) Donor 4 (human PBMCs; Donor 4, 20 μg/ml, 24 h): 32 pg/mL
IFN-γ (pg/ml) Donor 4 (human PBMCs; Donor 4, 20 μg/ml, 24 h): 4 pg/mL
IFN-a (human PBMCs; Table 25, donor 28250): 16 pg/mL
IFN-g (human PBMCs; Table 25, donor 28250, polynucleotides/spacers at amounts equivalent to the CIC, spacers alone 9 uM): 54 pg/mL
IFN-a (human PBMCs; Table 25, donor 28251): 16 pg/mL
IFN-g (human PBMCs; Table 25, donor 28251): 21 pg/mL
IFN-a (human PBMCs; Table 25, donor 28252): 16 pg/mL
IFN-g (human PBMCs; Table 25, donor 28252): 56 pg/mL
IFN-a (human PBMCs; Table 25, donor 28253): 16 pg/mL
IFN-g (human PBMCs; Table 25, donor 28253): 1 pg/mL
IFN-a mean (human PBMCs; [1]): 16 pg/mL
IFN-g mean (human PBMCs; [1]): 33 pg/mL
IFN-α (pg/ml) mean (human PBMCs; [2]): 0 pg/mL
IFN-γ (pg/ml) mean (human PBMCs; [2]): 4 pg/mL
IFN-α (pg/ml) mean (human PBMCs; [3]): 16 pg/mL
IFN-γ (pg/ml) mean (human PBMCs; [3]): 2 pg/mL
immunomodulatory activity (IFN-γ / IFN-α secretion), in words (human PBMCs; used alone (no cPLGA)): no activity; also recorded: did not have immunomodulatory activity
cpm1 (PBMCs; Donor 146, 2 μg/ml): 9724 cpm
cpm2 (PBMCs; Donor 146, 2 μg/ml): 3041 cpm
cpm3 (PBMCs; Donor 146, 2 μg/ml): 2425 cpm
mean cpm (PBMCs; Donor 146 mean): 5063 cpm
cpm1 (PBMCs; Donor 147, 2 μg/ml): 1706 cpm
cpm2 (PBMCs; Donor 147, 2 μg/ml): 1960 cpm
cpm3 (PBMCs; Donor 147, 2 μg/ml): 324 cpm
mean cpm (PBMCs; Donor 147 mean): 1330 cpm
mean of both (PBMCs; mean of Donors 146 and 147, 2 μg/ml): 3197 cpm
induction of serum IL-12 p40, IL-6 and TNF-α, in words (mice): inactive
B cell proliferation, in words (CD19+ B cells; 48 h plus 8 h 3H-thymidine pulse): little to no B cell proliferation
cpm1 (CD19+ B cells; [4]): 761 cpm
cpm2 (CD19+ B cells; [4]): 608 cpm
cpm3 (CD19+ B cells; [4]): 721 cpm
mean cpm (CD19+ B cells; B cells, Donor 146 mean, Experiment A): 697 cpm
cpm1 (CD19+ B cells; [5]): 569 cpm
cpm2 (CD19+ B cells; [5]): 460 cpm
cpm3 (CD19+ B cells; [5]): 687 cpm
mean cpm (CD19+ B cells; B cells, Donor 147 mean, Experiment A): 572 cpm
mean of both (CD19+ B cells; B cells, mean of Donors 146 and 147, Experiment A): 634 cpm
